Laboratory results reported in US5882851A, “Cytochrome P-450 monooxygenases” (Novartis Finance Corporation, priority 1993, dated 1999).

How the values were obtained:
[1] = tested on: cytochrome P450; test: Photoreversible carbon monoxide inhibition of oxime production in tropaeolum microsomes; type: biochemical, Tropaeolum majus; conditions: 60 min
Description: The microsomal reaction mixture consists of 80 μl microsomes (10 mg protein per ml), 10 μl ^14 C-phenylalanine (0.5 μCi, 464 mCi/mmol, Amersham) or ^14 C-tyrosine (0.5 μCi, 450 mCi/mmol, Amersham) and 10 μl NADPH (75 mg/ml). The reaction mixtures are incubated for 1 hour at 37° C. At the end of the incubation period, the reaction mixtures are extracted with 1500 μl ethyl acetate. The ethyl acetate phase is evaporated to dryness, redissolved in a small volume and analyzed.
The microsomal reaction mixtures are incubated using different experimental conditions. The reaction mixtures are analyzed by HPLC.

[2] = molecular target: T1, P-450TYR expressed in E. coli (Sorghum bicolor, UniProt Q43135); test: Substrate binding spectra of P-450TYR expressed in E. coli
T1 construct: in which the 35 N-terminal amino acids are replaced by the nine N-terminal amino acids from bovine 17α hydroxylase; nine N-terminal amino acids from bovine 17alpha-hydroxylase (replace the 35 N-terminal residues) (N); made in house; host or cells: E. coli JM109, vector pSP19g10L
Description: Cytochrome P-450TYR in the oxidized state has a strong absorption peak at 420 nm, representing the low spin state of the iron of the heme group. The binding of a ligand to the heme group shifts the absorption maximum by changing the spin state of the iron. Binding of tyrosine at the catalytic site of cytochrome P-450TYR induces a change of the spin state of the oxidized iron from low to high spin, and thereby changes the absorption maximum from 420 nm to 390 nm producing a type I spectrum (Jefcoate, Methods in Enzymology 52:258-279, 1978). The following experimental procedure is used to obtain the substrate binding spectrum: two identical cuvettes containing a buffered solution of the isolated cytochrome P-450 are prepared. The substrate of the enzyme is added to the sample cuvette whereas the same volume of buffer is added to the other cuvette. The difference spectrum is then recorded in an SLM-Aminco DW2c spectrophotometer. The absorption difference, A390-420, is proportional to the concentration of cytochrome P-450TYR with a bound substrate at its active site. If a saturating concentration of substrate is added to the sample cuvette, the absorption difference is proportional to the concentration of the substrate specific cytochrome P-450 in the cuvettes. The saturating concentration of the substrate is determined by titrating the cytochrome P-450 sample with increasing amounts of substrate and monitoring A390-420.
A modified cytocrome P-450TYR, in which the 35 N-terminal amino acids are replaced by the nine N-terminal amino acids from bovine 17α hydroxylase is introduced into the expression vector pSP19g10L which can be obtained from Dr. Henry Barnes (La Jolla, Calif.). This plasmid contains the lac Z promoter fused with the known short leader sequence (g10L) of gene 10 from bacteriophage T7 (Olin et al, 1988). A construct containing the N-terminal amino acids from bovine 17α hydroxylase and a truncated form of the P-450TYR gene is designed using PCR mutagenesis: Oligonucleotide TYROL 1d (5'-CGGGATCCATATGGCTCTGTTATTAGCAGTTTTTCTGTCGTACCTGGCCCG-3'; SEQ ID NO 23) containing a 5' mutant cDNA sequence as well as a BamHI and NdeI restriction site is used together with oligonucleotide TYROL 3 comprising the sequence surrounding the unique BamHI restriction site downstream of the ATG start codon of the cDNA coding for P-450TYR to amplify a modified N-terminal sequence of P-450TYR. The amplification product is cut with NdeI and BamHI restriction enzymes. To introduce a HindIII site immediately downstream of the stop codon of the P-450TYR gene, oligonucleotides TYROL 2 and TYROL 4 are used in a polymerase chain reaction to obtain a C-terminal fragment of the P-450TYR gene comprising a HindIII restriction site immediately downstream of the stop codon. The amplification product is cut with PstI and HindIII restriction enzymes. The complete expression plasmid is constructed by simultaneous ligation of the N-terminal NdeI/BamHI fragment, the BamHI/PstI fragment of the P-450TYR gene and the C-terminal PstI/HindIII fragment into NdeI/HindIII cleaved pSP19g10L vector DNA. The expression vector obtained is transformed into E. coli strain JM109. Transformed E. coli produce 300 nmol to 500 nmol cytochrome P-450TYR per liter cell culture upon growth at 28° C. in the presence of 1 mM isopropyl-β-D-thiogalactopyranoside and at 125 rpm. Expression levels as high as 900 nmol per liter, equivalent to 55 mg P-450TYR per liter, have been obtained. […]

[3] = molecular target: T2, E. coli-expressed cytochrome P-450TYR (Sorghum bicolor, UniProt Q43135); test: Reconstitution with E. coli-expressed cytochrome P-450TYR and sorghum NADPH cytochrome P450 reductase; type: biochemical; conditions: phenylalanine as substrate
T2 construct: in which the 35 N-terminal amino acids are replaced by the nine N-terminal amino acids from bovine 17α hydroxylase; nine N-terminal amino acids from bovine 17alpha-hydroxylase (replace the 35 N-terminal residues) (N); made in house; host or cells: E. coli JM109, vector pSP19g10L
Description: (§1) 10 μl of the lipid suspension is mixed in a glass vial with 50 μl of the cytochrome P-450TYR (0-1.5 pmol) solution. […] The reaction mixture is subsequently incubated for 1 hour at 30° C. At the end of the incubation period the reaction is stopped by transferring the glass vials onto ice. Radioactively labelled intermediates formed are extracted into 50 μl ehtyl acetate, applied to a silica coated TLC plate and developed using an ethyl acetate/toluene (1:5 v/v) mixture as mobile phase. The resultant product, p-hydroxyphenylacetaldehyde oxime is visualized by autoradiography of the TLC plate. Alternatively, the intermediates are analyzed by reverse-phase HPLC coupled to a Berthold radioactiviy monitor. […] Control samples may be made by omitting either cytochrome P-450 oxidoreductase or NADPH.
(§2) Reconstitution experiments with E. cole-expressed cytochrome P-450TYR and sorghum NADPH cytochorme P450 reductase in dilaurylpohsphatidylcholine micelles is performed as described in section 5.3. above.
T2 sequence (Q43135 other isoform, or with tags, fused parts or gaps): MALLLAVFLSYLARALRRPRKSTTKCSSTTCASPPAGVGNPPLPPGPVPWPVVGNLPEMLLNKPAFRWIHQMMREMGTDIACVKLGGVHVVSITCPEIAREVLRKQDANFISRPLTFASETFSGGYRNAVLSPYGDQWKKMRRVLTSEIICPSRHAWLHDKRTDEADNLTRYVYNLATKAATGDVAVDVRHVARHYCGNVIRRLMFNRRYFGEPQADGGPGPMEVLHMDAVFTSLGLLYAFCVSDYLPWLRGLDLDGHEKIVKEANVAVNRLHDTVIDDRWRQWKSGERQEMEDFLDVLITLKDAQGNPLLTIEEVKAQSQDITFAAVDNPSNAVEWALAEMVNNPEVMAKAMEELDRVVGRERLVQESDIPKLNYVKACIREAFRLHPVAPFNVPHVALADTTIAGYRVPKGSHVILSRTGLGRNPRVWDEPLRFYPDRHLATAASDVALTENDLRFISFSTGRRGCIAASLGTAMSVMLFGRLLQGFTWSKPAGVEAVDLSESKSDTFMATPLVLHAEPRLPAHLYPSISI

[4] = tested on: glucosinolate production; test: Induction of glucosinolate production in Tropaeolum majus; type: in vivo; conditions: 10 mM phenylalanine or 2% ethanol administered to the vermiculate, 24 hours, etiolated seedlings
Description: Seeds of Tropaeolum majus L. cv Empress of India (Dansk Havefroforsyning, Kolding, DK) are allowed to imbibe and germinate in complete darkness for one week at 25° C. In vivo biosynthesis experiments are performed wherein 1 μCi of the tracer ^14 C-labelled phenylalanine is administered to excised dark-grown seedlings for 24 hours followed by boiling of the plant material in 90% methanol and analysis of the extracts by HPLC as described by Lykkesfeldt and Moller, 1993. Prior to administration of the tracer to the excised seedling or leaf, the intact plant is subjected to a potential inducer for 24 hours.

[5] = molecular target: NADPH-cytochrome P-450 oxidoreductase, purified from Sorghum bicolor (Sorghum bicolor)
[6] = molecular target: T3, E. coli-expressed cytochrome P-450TYR (Sorghum bicolor, UniProt Q43135); test: Reconstitution with E. coli-expressed cytochrome P-450TYR and sorghum NADPH cytochrome P450 reductase; type: biochemical; conditions: dilaurylphosphatidylcholine micelles
T3 construct: in which the 35 N-terminal amino acids are replaced by the nine N-terminal amino acids from bovine 17α hydroxylase; nine N-terminal amino acids from bovine 17alpha-hydroxylase (replace the 35 N-terminal residues) (N); made in house; host or cells: E. coli JM109, vector pSP19g10L
T3 sequence (Q43135 whole entry, looked up): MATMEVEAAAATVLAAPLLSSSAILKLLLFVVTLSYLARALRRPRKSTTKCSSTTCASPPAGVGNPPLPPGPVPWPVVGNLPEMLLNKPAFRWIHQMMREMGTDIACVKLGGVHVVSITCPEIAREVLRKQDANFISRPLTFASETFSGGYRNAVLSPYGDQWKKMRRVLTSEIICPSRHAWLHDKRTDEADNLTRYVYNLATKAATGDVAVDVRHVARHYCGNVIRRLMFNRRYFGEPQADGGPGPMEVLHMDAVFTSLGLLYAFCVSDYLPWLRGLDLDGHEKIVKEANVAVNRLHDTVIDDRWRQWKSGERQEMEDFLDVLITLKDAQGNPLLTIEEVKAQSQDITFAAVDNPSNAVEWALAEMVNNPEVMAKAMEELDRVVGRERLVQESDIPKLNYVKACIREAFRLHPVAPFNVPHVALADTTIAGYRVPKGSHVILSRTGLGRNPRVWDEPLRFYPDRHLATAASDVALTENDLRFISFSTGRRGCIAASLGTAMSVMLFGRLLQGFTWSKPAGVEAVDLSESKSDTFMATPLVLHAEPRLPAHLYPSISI
Description: as §1, §2

[7] = molecular target: NADPH-cytochrome P-450 oxidoreductase, purified from Sorghum bicolor (Sorghum bicolor); remark: listed apart in the source

T1 sequence (Q43135 other isoform, or with tags, fused parts or gaps): as the sequence (Q43135 other isoform, or with tags, fused parts or gaps) above

With [C-]#[O+] [CO/O2, carbon monoxide] the “% inhibition of oxime production” value ([1]; with light (450 nm)) was 23% and the “% inhibition of oxime production” value ([1]; without light) was 65%.

In the case of N[C@@H](Cc1ccccc1)C(=O)O [phenylalanine], the “type of substrate binding spectrum” value [2] is reported as “type Ispectrum”, the “production of the corresponding oxime” value [3] is reported as “do not result in the production of the corresponding oxime” and the “increase in glucosinolate production as compared to control experiments with water” value [4] is reported as “threefold increase”.

“modified cytochrome P-450TYR in which the 35 N-terminal amino acids are replaced by the nine N-terminal amino acids from bovine 17α hydroxylase, expressed in E. coli (from UniProt P05185) (enzyme)” gave an oxime production by the enzyme reconstituted in dilaurylphosphatidylcholine micelles (turnover rate) (nmol oxime per nmol P-450TYR per minute) [5] of 349.

B1: cytochrome P-450TYR: sorghum cytochrome P-450 monooxygenase converting tyrosine to p-hydroxyphenylacetaldehyde oxime, SEQ ID NO: 2 (protein)
chain: T3 sequence (Q43135 whole entry, looked up)
In the case of B1, the Turnover rate [6] is reported as 349 nmol oxime per nmol P-450TYR per minute.

B2: cytochrome P-450TYR from Sorghum bicolor (L.) Moench (enzyme)
chain: ATMEVEAAAATVLAAPLLSSSAILKLLLFVVTLSYLARALRRPRKSTTKCSSTTCASPPAGVGNPPLPPGPVPWPVVGNLPEMLLNKPAFRWIHQMMREMGTDIACVKLGGVHVVSITCPEIAREVLRKQDANFISRPLTFASETFSGGYRNAVLSPYGDQWKKMRRVLTSEIICPSRHAWLHDKRTDEADNLTRYVYNLATKAATGDVAVDVRHVARHYCGNVIRRLMFNRRYFGEPQADGGPGPMEVLHMDAVFTSLGLLYAFCVSDYLPWLRGLDLDGHEKIVKEANVAVNRLHDTVIDDRWRQWKSGERQEMEDFLDVLITLKDAQGNPLLTIEEVKAQSQDITFAAVDNPSNAVEWALAEMVNNPEVMAKAMEELDRVVGRERLVQESDIPKLNYVKACIREAFRLHPVAPFNVPHVALADTTIAGYRVPKGSHVILSRTGLGRNPRVWDEPLRFYPDRHLATAASDVALTENDLRFISFSTGRRGCIAASLGTAMSVMLFGRLLQGFTWSKPAGVEAVDLSESKSDTFMATPLVLHAEPRLPAHLYPSISI
B2 was tested, and the conversion of L-tyrosine to p-hydroxyphenyl-acetaldehyde oxime by the enzyme reconstituted in lipid micelles (turn-over number) [7] was 198 min⁻¹.
